Source: patent publication US20250345169A1, “DEVICES FOR PROVIDING TISSUE SUPPORT DURING BREAST RECONSTRUCTION, AND SYSTEMS AND METHODS THEREOF” (Melodi Health, Inc., priority 2023, published 2025)

Conditions: in vivo

systemic plasma level | SMILES
below detection limits | CN(C)c1ccc(O)c2c1C[C@H]1C[C@H]3[C@H](N(C)C)C(O)=C(C(N)=O)C(=O)[C@@]3(O)C(O)=C1C2=O [Minocycline]
below detection limits | CO[C@H]1/C=C/O[C@@]2(C)Oc3c(C)c(O)c4c(O)c(c(/C=N/N5CCN(C)CC5)c(O)c4c3C2=O)NC(=O)/C(C)=C\C=C\[C@H](C)[C@H](O)[C@@H](C)[C@@H](O)[C@@H](C)[C@H](OC(C)=O)[C@@H]1C [Rifampin]
